The values below come from US10669284B2, “Fused thiazolopyrimidine derivatives as MNKS inhibitors” (LIFEARC, priority 2015, dated 2020).

Where two headings read alike, the source gives them in different places.

Assay [1] addresses T1, Full-length human MNK2 (Homo sapiens, UniProt Q9HBH9, T379D).
T1 construct: GST (N); purchased Carna Biosciences 02-146; host or cells: baculovirus expression system
Nature of the assay: MNK2 biochemical IC50 assay (Caliper Mobility Shift Assay). The text has this: (§1) The phosphorylated peptide product and unphosphorylated peptide substrate were detected using a Caliper Mobility Shift Assay using the Caliper LabChip EZ Reader II.
(§2) The Caliper Mobility Shift Assay technology is based on the utilisation of a microfluidic chip to measure the conversion of a fluorescent non-phosphorylated peptide substrate to phosphorylated product by electrophoresis separation of substrate and product and detection via Laser-induced fluorescence. The LabChip EZ Reader software calculates the relative heights of substrate and product peaks and reports the peak ratio (Product peak(P) divided by the sum of Product peak(P) and Substrate peak(S)). The percent-conversion is calculated as 100×[(P/(P+S)]. All assays were set up to run in the linear phase with a maximum of 10 percent substrate conversion.
(§3) These were N-terminal GST fusion proteins expressed in baculovirus expression system and purified by glutathione sepharose affinity chromatography. […] All other assay reagents were sourced from Sigma.
(§4) The assay incubation times were adjusted depending on the concentration of ATP used. Assays were performed at low (50 uM) and high (1 mM) ATP. The low ATP values were selected to run at Km conditions for the standard assay to allow relative potencies to be compared across other kinases. The high ATP concentration was selected as representative of cellular ATP concentrations, and for an indication of ATP competition, where a significant shift (greater than half log) in apparent potency would be expected compared to Km conditions. All IC50 values reported are the average of at least two independent experiments.
Reactions were performed as above using 10 nM MNK2 in the assay. Standard assays contained 50 uM ATP and high concentration ATP assays contained 1 mM ATP. […] All other conditions were the same.

For assay [2], the system named is phosphorylation of eIF4E at ser209 in MV4.11 cell line. Nature of the assay: MNK cellular activity phospho-eIF4E detection assay (Alphascreen Surefire). Format: cell-based. The conditions noted are these: Homo sapiens; MV4.11 cell line, phospho-eIF4E (ser209) Alphascreen Surefire; read-out: P(IC50) elF4E (converted). As for the experimental part: The assay detection is based on the formation of sandwich antibody complexes coupled to donor and acceptor beads. Excitation at 680 nm causes the transfer of a singlet oxygen species between donor and acceptor beads when they are in close proximity by binding to the analyte ([…]), which results in the emission of light at 520-620 nm.
Cells were then lysed and the Alphascreen Surefire protocol followed according to manufacturer's recommendations. 8 ul Acceptor beads (1:50 dilution in kit activation buffer) was added to lysate, shaken 150 rpm for 2 min and incubated for 1.5 hr at room temperature. 3 ul Donor beads (1:20 dilution in kit dilution buffer) were then added, shaken 150 rpm for 2 min and incubated for a further 1.5 hr at room temperature after which the plates were read on Pherastar FS using Alphascreen optic module.
Data were normalised relative to untreated DMSO only controls and curves repeated in duplicate within experiments. Data reported are averages of at least 2 independent experiments.
A general note: Alpha assays give light when donor and acceptor beads are brought close together.

Assay [3] deals with T2, Full-length human MNK1 (Homo sapiens, UniProt Q9BUB5, T385D).
T2 construct: GST (N); purchased Carna Biosciences 02-145; host or cells: baculovirus expression system
Nature of the assay: MNK1 biochemical IC50 assay (Caliper Mobility Shift Assay).
Text: as §1, §2, §3
Compounds were serially diluted in DMSO to generate a 10-point half log dilution curve with a final top concentration of 100 uM in the assay. […] Compounds were pre-incubated with enzyme and peptide in reaction buffer for 30 mins prior to addition of ATP to initiate the reaction. Final assay concentrations were 3 nM MNK1, 2 uM peptide substrate, 50 uM ATP, 50 mM Hepes pH 7.0, 0.01% BSA, 10 mM MgCl2, 1 mM dithiothrietol.
as §4

Where [4] appears, read: read-out: P(IC50) MNK2 (converted).
The mark [5] stands for this setting: read-out: P(IC50) MNK1 (converted).

T1 sequence (Q9HBH9 whole entry T379D): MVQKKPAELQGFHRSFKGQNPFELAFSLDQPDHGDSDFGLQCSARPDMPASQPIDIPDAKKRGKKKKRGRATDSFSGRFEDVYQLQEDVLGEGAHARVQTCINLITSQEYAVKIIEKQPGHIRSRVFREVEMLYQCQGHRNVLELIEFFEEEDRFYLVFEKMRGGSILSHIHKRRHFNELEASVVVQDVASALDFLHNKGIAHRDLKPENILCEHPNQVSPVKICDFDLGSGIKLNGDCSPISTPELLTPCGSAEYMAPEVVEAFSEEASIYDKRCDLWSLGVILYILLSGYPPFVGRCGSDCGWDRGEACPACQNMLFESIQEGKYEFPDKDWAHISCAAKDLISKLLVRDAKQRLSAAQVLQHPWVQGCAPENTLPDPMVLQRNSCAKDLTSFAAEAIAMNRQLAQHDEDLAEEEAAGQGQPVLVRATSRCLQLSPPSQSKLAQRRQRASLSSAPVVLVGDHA
T2 sequence (Q9BUB5 1-424 isoform Q9BUB5-2 T344D): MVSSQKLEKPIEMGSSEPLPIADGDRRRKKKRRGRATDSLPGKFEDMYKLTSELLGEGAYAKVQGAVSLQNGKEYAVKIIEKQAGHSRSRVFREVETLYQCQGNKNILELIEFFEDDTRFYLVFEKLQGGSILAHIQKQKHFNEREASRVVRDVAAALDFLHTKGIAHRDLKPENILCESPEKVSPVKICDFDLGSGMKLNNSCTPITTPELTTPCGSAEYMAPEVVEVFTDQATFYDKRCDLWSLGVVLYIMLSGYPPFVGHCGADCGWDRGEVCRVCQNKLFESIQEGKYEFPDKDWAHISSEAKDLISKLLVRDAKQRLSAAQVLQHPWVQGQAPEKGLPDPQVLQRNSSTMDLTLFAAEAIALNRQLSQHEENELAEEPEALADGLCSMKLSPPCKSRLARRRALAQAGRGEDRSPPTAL

In general, IC50 refers to the concentration at which inhibition is half-maximal. Consider `O=C(NC1CCOCC1)c1nc2c(N3CCc4ncccc43)ncnc2s1` [Example 44, 7-(2,3-Dihydro-1H-pyrrolo[3,2-b]pyridin-1-yl)-N-(tetrahydro-2H-pyran-4-yl)[1,3]thiazolo[5,4-d]pyrimidine-2-carboxamide], for which the IC50 in assay [1] (setting [4]) was 100 nM; in assay [2], 100 nM; in assay [3] (setting [5]), 158 nM.
On to `NCCC1CN(c2ncnc3sc(C(=O)NC4CCOCC4)nc23)c2ccccc21` (stereo not shown) [Example 111, 7-[3-(2-aminoethyl)indolin-1-yl]-N-tetrahydropyran-4-yl-thiazolo[5,4-d]pyrimidine-2-carboxamide], for which the IC50 in assay [1] (setting [4]) is 6.31 nM; in assay [2], 63.1 nM; in assay [3] (setting [5]), 5.01 nM.
Taken in the same sequence, the figures for `O=C(NC1CCOCC1)c1nc2c(N3CC4(CCCC4)c4ccccc43)ncnc2s1` [Example 41, 7-(Spiro[cyclopentane-1,3′-indol]-1′(2′H)-yl)-N-(tetrahydro-2H-pyran-4-yl)[1,3]thiazolo[5,4-d]pyrimidine-2-carboxamide] were 12.6 nM, 20 nM and 25.1 nM.
The matching figures for `CN(C)CCCNc1nc2c(N3CCc4cc(F)ccc43)ncnc2s1` [Example 85, N1-(7-(5-fluoroindolin-1-yl)thiazolo[5,4-d]pyrimidin-2-yl)-N3,N3-dimethylpropane-1,3-diamine]: 20 nM, 100 nM and 10 nM.
The matching figures for `CN(C)CCCNC(=O)c1nc2c(Nc3ccc(F)cc3O[C@@H]3CCCC[C@H]3O)ncnc2s1` [Example 15, N-[3-(dimethylamino)propyl]-7-[4-fluoro-2-[(1R,2R)-2-hydroxycyclohexoxy]anilino]thiazolo[5,4-d]pyrimidine-2-carboxamide]: 631 nM, 251 nM and 794 nM.
As to `CC(C)Oc1cc(F)ccc1Nc1ncnc2sc(C(=O)NCC3CCOCC3)nc12` [Example 38, 7-{[4-fluoro-2-(propan-2-yloxy)phenyl]amino}-N-(tetrahydro-2H-pyran-4-ylmethyl)[1,3]thiazolo[5,4-d]pyrimidine-2-carboxamide], the IC50 in assay [1] (setting [4]) was 63.1 nM; in assay [2], 79.4 nM; in assay [3] (setting [5]), 100 nM.
The matching figures for `O=C(NC1CCOCC1)c1nc2c(N3CC(CCN4CCCC4)c4ccccc43)ncnc2s1` (stereo not shown) [Example 153, 7-[3-(2-pyrrolidin-1-ylethyl)indolin-1-yl]-N-tetrahydropyran-4-yl-thiazolo[5,4-d]pyrimidine-2-carboxamide]: 50.1 nM, 100 nM and 50.1 nM.
Take `CC(C)CCNC(=O)c1nc2c(N3CC(CCN)c4ccccc43)ncnc2s1` (stereo not shown) [Example 165, 7-[3-(2-aminoethyl)indolin-1-yl]-N-isopentyl-thiazolo[5,4-d]pyrimidine-2-carboxamide]: the half-maximal inhibitory concentration (IC50) in assay [1] (setting [4]) is 10 nM; in assay [2], 15.8 nM; in assay [3] (setting [5]), 10 nM.
As to `CN(C)CCNC(=O)c1nc2c(N3CCc4cc(F)ccc43)ncnc2s1` [Example 73, N-[2-(dimethylamino)ethyl]-7-(5-fluoroindolin-1-yl)thiazolo[5,4-d]pyrimidine-2-carboxamide], the values for the IC50 in assay [1] (setting [4]), in assay [2] and in assay [3] (setting [5]) were 5.01 nM, 15.8 nM and 5.01 nM, respectively.
Regarding `COc1ccc2c(c1)CCN2c1ncnc2sc(C(=O)NCC3CCNCC3)nc12` [Example 63, 7-(5-methoxyindolin-1-yl)-N-(4-piperidylmethyl)thiazolo[5,4-d]pyrimidine-2-carboxamide], the results for the IC50 in assay [1] (setting [4]), in assay [2] and in assay [3] (setting [5]) were 63.1 nM, 39.8 nM and 79.4 nM, respectively.
Taken in the same sequence, the figures for `O=C(Nc1nc2c(N3CCc4cc(F)ccc43)ncnc2s1)C1CCOC1` (stereo not shown) [Example 84, N-(7-(5-Fluoroindolin-1-yl)thiazolo[5,4-d]pyrimidin-2-yl)tetrahydrofuran-3-carboxamide] were 5.01 nM, 50.1 nM and 3.98 nM.
The matching figures for `CN1CCC(NC(=O)c2nc3c(N4CCc5cc(F)ccc54)ncnc3s2)CC1` [Example 67, 7-(5-fluoroindolin-1-yl)-N-(1-methyl-4-piperidyl)thiazolo[5,4-d]pyrimidine-2-carboxamide]: 3.16 nM, 3.98 nM and 3.98 nM.
The matching figures for `CNCCCNC(=O)c1nc2c(N3CC(C)(C)c4ccccc43)ncnc2s1` [Example 159]: 3.16 nM, 5.01 nM and 5.01 nM.
As for `CNCCCNC(=O)c1nc2c(N3c4ccccc4C[C@H]3C)ncnc2s1` [Example 128, N-[3-(methylamino)propyl]-7-[(2R)-2-methylindolin-1-yl]thiazolo[5,4-d]pyrimidine-2-carboxamide], the IC50 was 12.6 nM in assay [1] (setting [4]), 79.4 nM in assay [2] and 20 nM in assay [3] (setting [5]).
Consider `C[C@H]1Cc2ccccc2N1c1ncnc2sc(C(=O)NC3CCNCC3)nc12` [Example 132, 7-[(2S)-2-methylindolin-1-yl]-N-(4-piperidyl) thiazolo[5,4-d]pyrimidine-2-carboxamide], for which the IC50 in assay [1] (setting [4]) is 15.8 nM; in assay [2], 25.1 nM; in assay [3] (setting [5]), 20 nM.
In the case of `CN(C)CCCNC(=O)c1nc2c(Nc3ccc(F)cc3OC3CCCC3)ncnc2s1` [Example 22, 7-[2-(Cyclopentoxy)-4-fluoro-anilino]-N-[3-(dimethylamino)propyl]thiazolo[5,4-d]pyrimidine-2-carboxamide], the IC50 is 63.1 nM in assay [1] (setting [4]), 63.1 nM in assay [2] and 100 nM in assay [3] (setting [5]).
As to `O=C(NCC1CCNCC1)c1nc2c(Nc3ccc(F)cc3OC(F)(F)F)ncnc2s1` [Example 59, 7-[4-fluoro-2-(trifluoromethoxy)anilino]-N-(4-piperidylmethyl)thiazolo[5,4-d]pyrimidine-2-carboxamide], the 50% inhibitory concentration (IC50) is 1580 nM in assay [1] (setting [4]) and 631 nM in assay [2].
In the case of `CC(C)Oc1cc(F)ccc1Nc1ncnc2sc(C(=O)NCCN3CCNCC3)nc12` [Example 9, 7-(4-fluoro-2-isopropoxy-anilino)-N-(2-piperazin-1-ylethyl)thiazolo[5,4-d]pyrimidine-2-carboxamide], the results for the concentration for half-maximal inhibition (IC50) in assay [1] and in assay [3] (setting [5]) were 31.6 nM and 50.1 nM, respectively.
As for `CN(C)CCCNC(=O)c1nc2c(N3CCc4ccccc43)ncnc2s1` [Example 27, N-[3-(Dimethylamino)propyl]-7-indolin-1-yl-thiazolo[5,4-d]pyrimidine-2-carboxamide], the IC50 in assay [1] is 7.94 nM; in assay [3] (setting [5]) it was 10 nM.
As for `CO[C@H]1CCCC[C@@H]1Oc1cc(F)ccc1Nc1ncnc2sc(C(=O)NCCCN(C)C)nc12` [Example 21], the IC50 in assay [1] (setting [4]) is 1260 nM; in assay [2] it was 316 nM.
Take `O=C(NCC1CCNCC1)c1nc2c(N3CCc4cc(Cl)ccc43)ncnc2s1` [Example 168, 7-(5-Chloroindolin-1-yl)-N-(4-piperidylmethyl)thiazolo[5,4-d]pyrimidine-2-carboxamide]: the IC50 in assay [1] (setting [4]) and in assay [3] (setting [5]) was 3.16 nM in each case.
Regarding `O=C(NCCCN1CCCC1)c1nc2c(N3CCc4cc(F)ccc43)ncnc2s1` [Example 68], the 50% inhibitory concentration (IC50) in assay [1] and in assay [3] was 2 nM throughout.
For the compound `CC(C)Oc1ccc2c(c1)CCN2c1ncnc2sc(C(=O)NC3CCOCC3)nc12` [Example 116, 7-(5-Isopropoxyindolin-1-yl)-N-tetrahydropyran-4-yl-thiazolo[5,4-d]pyrimidine-2-carboxamide], the IC50 in assay [1] (setting [4]) was 631 nM; in assay [2], 501 nM.
On to `CN(C)CCCNC(=O)c1nc2c(N3CC(C)(C)c4ccccc43)ncnc2s1` [Example 25, N-[3-(Dimethylamino)propyl]-7-(3,3-dimethylindolin-1-yl)thiazolo[5,4-d]pyrimidine-2-carboxamide], for which the concentration for half-maximal inhibition (IC50) in assay [1] is 3.98 nM; in assay [3] (setting [5]) it was 6.31 nM.
